Biological target: CDK2 (UniProt P24941)
Assay: Enzyme Assay

Row | SMILES | Ki [nM]
1 | N#CCc1ccc(Nc2nc(Nc3cc(C4CC4)n[nH]3)cc(-c3ccccc3)n2)cc1 | < 1000
2 | CC(=O)Nc1ccc(Sc2nc(Nc3cc(C)n[nH]3)c3ccccc3n2)cc1 | 1000 to 20000
3 | OCCc1ccc(Nc2nc(Nc3cc(C4CC4)n[nH]3)c3ccccc3n2)cc1 | < 1000
4 | CC(=O)Nc1ccc(Sc2nc(Nc3cc(C)n[nH]3)c3cccc(O)c3n2)cc1 | 1000 to 20000
5 | Cc1cccc(Sc2nc(Nc3cc(C)n[nH]3)c3ccccc3n2)c1 | < 1000
6 | CC(=O)Nc1ccc(Sc2nc(Nc3cc(C4CC4)n[nH]3)c3ccccc3n2)cc1 | < 1000
7 | Cc1cc(Nc2nc(Nc3ccc4ncsc4c3)nc3ccccc23)[nH]n1 | < 1000
8 | COc1cccc2c(Nc3cc(C)n[nH]3)nc(Sc3ccc(NC(C)=O)cc3)nc12 | 1000 to 20000
9 | c1ccc2c(Nc3cc(C4CC4)n[nH]3)nc(Nc3ccc4ncsc4c3)nc2c1 | < 1000
10 | CCCS(=O)(=O)Nc1ccc(Sc2nc(Nc3cc(C)n[nH]3)c3ccccc3n2)cc1 | 1000 to 20000
11 | CCc1ccc(Nc2nc(Nc3cc(C4CC4)n[nH]3)c3ccccc3n2)cc1 | < 1000
12 | COc1ccc2c(Nc3cc(C)n[nH]3)nc(Sc3ccc(NC(C)=O)cc3)nc2c1 | 1000 to 20000
13 | Cc1cc(Nc2nc(Nc3ccc(CC#N)cc3)nc3ccccc23)[nH]n1 | < 1000

Source: the Kinase Knowledgebase extract (Sharma et al. 2016)
